Measurements published in ChEMBL document CHEMBL3286253, “Design, synthesis, and structure-activity relationship studies of novel thioether pleuromutilin derivatives as potent antibacterial agents” (J Med Chem, 2014).
pIC50: −log10 of the molar value. Converted amounts (≈) assume the structure as drawn.

Key:
Streptococcus pneumoniae = assay: Antibacterial activity against penicillin-resistant Streptococcus pneumoniae after 16 hrs by agar dilution method; format: functional
[1] = AUC (0 to t) in Sprague-Dawley rat at 10 mg/kg, iv; format: ADME, organism-based; parameters: dose 10 mg/kg, route intravenous; conditions: plasma
Staphylococcus aureus [2] = assay: Antibacterial activity against Staphylococcus aureus […] after 16 hrs by agar dilution method; format: functional
[3] = Mean residence time in Sprague-Dawley rat at 10 mg/kg, iv; format: ADME, organism-based; parameters: dose 10 mg/kg, route intravenous; conditions: in vivo
Staphylococcus aureus [4] = assay: Antibacterial activity against methicillin-resistant Staphylococcus aureus after 16 hrs by agar dilution method; format: functional
[5] = system: Staphylococcus epidermidis; assay: Antibacterial activity against methicillin-sensitive Staphylococcus epidermidis after 16 hrs by agar dilution method; format: functional
Staphylococcus aureus [6] = assay: Antibacterial activity against methicillin-sensitive Staphylococcus aureus after 16 hrs by agar dilution method; format: functional
[7] = Volume of distribution at steady state in Sprague-Dawley rat at 10 mg/kg, iv; format: ADME, organism-based; parameters: dose 10 mg/kg, route intravenous; conditions: in vivo, read-out: Vdss
[8] = Clearance in Sprague-Dawley rat at 10 mg/kg, iv; format: ADME, organism-based; parameters: dose 10 mg/kg, route intravenous; conditions: in vivo
[9] = Elimination half life in Sprague-Dawley rat at 10 mg/kg, iv; format: ADME, organism-based; parameters: dose 10 mg/kg, route intravenous; conditions: in vivo, read-out: beta t1/2 (converted)
[10] = system: Staphylococcus epidermidis; assay: Antibacterial activity against methicillin-resistant Staphylococcus epidermidis after 16 hrs by agar dilution method; format: functional
Cytochrome P450 3A4 [11] = target: T1, Cytochrome P450 3A4 (Homo sapiens, UniProt P08684); assay: Inhibition of CYP3A4 in human liver microsomes using testosterone as substrate after 15 mins by LC/MS/MS analysis
Cytochrome P450 2C9 = Cytochrome P450 2C9 (Homo sapiens, UniProt P11712); assay: Inhibition of CYP2C9 in human liver microsomes using tolbutamide as substrate after 15 mins by LC/MS/MS analysis
Cytochrome P450 2C19 = Cytochrome P450 2C19 (Homo sapiens, UniProt P33261); assay: Inhibition of CYP2C19 in human liver microsomes using mephenytoin as substrate after 15 mins by LC/MS/MS analysis
Cytochrome P450 2D6 = Cytochrome P450 2D6 (Homo sapiens, UniProt P10635); assay: Inhibition of CYP2D6 in human liver microsomes using dextromethorphan as substrate after 15 mins by LC/MS/MS analysis
[12] = AUC (0 to t) in Sprague-Dawley rat at 2 mg/kg, iv administered as cassette dosing; format: ADME, organism-based; parameters: dose 2 mg/kg, route intravenous; conditions: plasma
Staphylococcus aureus [13] = assay: Antibacterial activity against clinical isolate of methicillin-sensitive Staphylococcus aureus infected in iv dosed mouse administered 1 hr after infection for 4 days; format: functional
Staphylococcus aureus [14] = assay: Antibacterial activity against of methicillin-resistant Staphylococcus aureus ATCC 33591 infected in iv dosed neutropenic mouse administered 1 hr after infection measured after 24 hrs; format: functional
[15] = Elimination half life in Sprague-Dawley rat at 2 mg/kg, iv administered as cassette dosing; format: ADME, organism-based; parameters: dose 2 mg/kg, route intravenous; conditions: in vivo, read-out: beta t1/2 (converted)
Cytochrome P450 1A2 = target: T2, Cytochrome P450 1A2 (Homo sapiens, UniProt P05177); assay: Inhibition of CYP1A2 in human liver microsomes using phenacetin as substrate after 15 mins by LC/MS/MS analysis
T2 sequence (P05177 whole entry): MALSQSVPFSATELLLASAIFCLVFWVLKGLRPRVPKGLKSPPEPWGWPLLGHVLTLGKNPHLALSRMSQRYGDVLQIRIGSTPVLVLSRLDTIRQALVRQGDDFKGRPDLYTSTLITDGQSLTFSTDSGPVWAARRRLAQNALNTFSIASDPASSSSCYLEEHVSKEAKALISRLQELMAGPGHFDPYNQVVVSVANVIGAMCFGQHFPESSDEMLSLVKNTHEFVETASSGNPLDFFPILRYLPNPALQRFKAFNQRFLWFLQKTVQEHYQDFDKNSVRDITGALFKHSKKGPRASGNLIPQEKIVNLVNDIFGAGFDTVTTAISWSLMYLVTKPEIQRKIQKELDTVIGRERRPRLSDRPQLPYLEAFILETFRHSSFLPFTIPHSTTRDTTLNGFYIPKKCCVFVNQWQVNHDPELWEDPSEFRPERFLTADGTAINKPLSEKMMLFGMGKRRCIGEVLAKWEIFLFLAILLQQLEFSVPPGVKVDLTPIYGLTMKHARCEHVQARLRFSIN

Cytochrome P450 3A4 [16] = target: T1, Cytochrome P450 3A4; assay: Inhibition of CYP3A4 in human liver microsomes using midazolam as substrate after 15 mins by LC/MS/MS analysis
Staphylococcus aureus [17] = assay: Antibacterial activity against clinical isolate of methicillin-sensitive Staphylococcus aureus infected in iv dosed mouse assessed as host survival administered 1 hr after infection for 4 days; format: functional
[18] = Mean residence time in Sprague-Dawley rat at 2 mg/kg, iv administered as cassette dosing; format: ADME, organism-based; parameters: dose 2 mg/kg, route intravenous; conditions: in vivo
Staphylococcus aureus [19] = assay: Antibacterial activity against of methicillin-resistant Staphylococcus aureus ATCC 33591 infected in iv dosed neutropenic mouse assessed as host survival administered 1 hr after infection measured after 24 hrs; format: functional; conditions: ATCC 33591, iv
[20] = Clearance in Sprague-Dawley rat at 2 mg/kg, iv administered as cassette dosing; format: ADME, organism-based; parameters: dose 2 mg/kg, route intravenous; conditions: in vivo
[21] = Volume of distribution at steady state in Sprague-Dawley rat at 2 mg/kg, iv administered as cassette dosing; format: ADME, organism-based; parameters: dose 2 mg/kg, route intravenous; conditions: in vivo, read-out: Vdss
Staphylococcus aureus [22] = assay: Antibacterial activity against of methicillin-sensitive Staphylococcus aureus ATCC 19636 infected in iv dosed mouse administered 1 hr after infection measured after 48 hrs; format: functional
Staphylococcus aureus [23] = assay: Antibacterial activity against of methicillin-sensitive Staphylococcus aureus ATCC 19636 infected in iv dosed mouse assessed as host survival administered 1 hr after infection measured after 48 hrs; format: functional; conditions: ATCC 19636, iv
[24] = Chemical stability of aqueous solution state of the compound assessed as compound remaining after 24 hrs by UV/HPLC analysis; format: physicochemical; conditions: read-out: Stability
[25] = Chemical stability of solid state of the compound assessed as compound remaining after 100 days by UV/HPLC analysis; format: physicochemical; conditions: read-out: Stability
[26] = Aqueous solubility of the compound in water at pH 7.4; conditions: water
[27] = Tmax in Sprague-Dawley rat at 10 mg/kg, iv; format: ADME, organism-based; parameters: dose 10 mg/kg, route intravenous; conditions: in vivo
Rattus norvegicus = assay: Tmax in Sprague-Dawley rat assessed as 14-O-(((5-hydroxymethylpyridin-3-yl)sulfanyl)acetyl)mutilin level at 10 mg/kg, iv; format: ADME, organism-based; parameters: dose 10 mg/kg, route intravenous; conditions: in vivo
[28] = Chemical stability of aqueous solution state of the compound assessed as compound remaining after 14 days by UV/HPLC analysis; format: physicochemical; conditions: read-out: Stability
[29] = Plasma concentration in Sprague-Dawley rat at 10 mg/kg, iv after 15 mins; format: ADME, organism-based; parameters: dose 10 mg/kg, route intravenous
[30] = Chemical stability of solid state of the compound assessed as compound remaining after 24 hrs by UV/HPLC analysis; format: physicochemical; conditions: read-out: Stability

T1 sequence (P08684 whole entry): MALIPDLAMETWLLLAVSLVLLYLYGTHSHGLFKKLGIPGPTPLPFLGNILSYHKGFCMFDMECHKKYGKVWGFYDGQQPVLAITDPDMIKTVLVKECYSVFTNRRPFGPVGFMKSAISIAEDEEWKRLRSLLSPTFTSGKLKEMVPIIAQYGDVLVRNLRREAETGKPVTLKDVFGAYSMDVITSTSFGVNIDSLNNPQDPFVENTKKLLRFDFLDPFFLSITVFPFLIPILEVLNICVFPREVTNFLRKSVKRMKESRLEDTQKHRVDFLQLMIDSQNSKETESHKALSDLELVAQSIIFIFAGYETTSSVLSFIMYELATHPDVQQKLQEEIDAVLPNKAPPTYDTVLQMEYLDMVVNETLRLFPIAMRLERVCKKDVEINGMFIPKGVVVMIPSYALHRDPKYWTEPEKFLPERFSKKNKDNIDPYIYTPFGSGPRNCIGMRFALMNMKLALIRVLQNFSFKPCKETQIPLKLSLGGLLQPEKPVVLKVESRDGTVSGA
Cytochrome P450 2D6, sequence (P10635 whole entry): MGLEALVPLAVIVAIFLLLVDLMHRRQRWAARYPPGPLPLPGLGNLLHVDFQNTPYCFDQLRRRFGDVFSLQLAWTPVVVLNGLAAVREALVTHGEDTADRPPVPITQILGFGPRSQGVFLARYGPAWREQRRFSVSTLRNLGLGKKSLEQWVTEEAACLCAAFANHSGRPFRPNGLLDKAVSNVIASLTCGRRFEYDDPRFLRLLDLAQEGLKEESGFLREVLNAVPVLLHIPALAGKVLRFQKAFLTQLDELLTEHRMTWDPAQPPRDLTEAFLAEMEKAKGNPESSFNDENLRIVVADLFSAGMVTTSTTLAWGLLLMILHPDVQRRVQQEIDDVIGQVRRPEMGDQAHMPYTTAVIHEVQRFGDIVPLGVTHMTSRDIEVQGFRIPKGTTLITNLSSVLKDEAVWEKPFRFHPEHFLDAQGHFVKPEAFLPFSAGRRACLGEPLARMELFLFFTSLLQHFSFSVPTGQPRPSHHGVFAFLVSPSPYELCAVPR
Cytochrome P450 2C9, sequence (P11712 whole entry): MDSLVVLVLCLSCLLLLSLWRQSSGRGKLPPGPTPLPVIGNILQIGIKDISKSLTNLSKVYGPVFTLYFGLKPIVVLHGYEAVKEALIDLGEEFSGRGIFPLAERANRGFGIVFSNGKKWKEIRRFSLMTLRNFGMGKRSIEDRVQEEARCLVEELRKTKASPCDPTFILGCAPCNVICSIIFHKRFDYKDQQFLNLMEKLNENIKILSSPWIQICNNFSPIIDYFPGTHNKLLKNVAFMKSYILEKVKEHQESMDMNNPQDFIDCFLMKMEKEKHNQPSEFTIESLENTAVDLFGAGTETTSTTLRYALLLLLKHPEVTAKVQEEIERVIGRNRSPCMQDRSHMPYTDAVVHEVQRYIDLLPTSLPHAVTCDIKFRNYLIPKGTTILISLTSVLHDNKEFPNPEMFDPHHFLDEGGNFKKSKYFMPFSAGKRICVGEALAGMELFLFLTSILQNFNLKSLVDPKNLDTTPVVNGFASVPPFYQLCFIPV
Cytochrome P450 2C19, sequence (P33261 whole entry): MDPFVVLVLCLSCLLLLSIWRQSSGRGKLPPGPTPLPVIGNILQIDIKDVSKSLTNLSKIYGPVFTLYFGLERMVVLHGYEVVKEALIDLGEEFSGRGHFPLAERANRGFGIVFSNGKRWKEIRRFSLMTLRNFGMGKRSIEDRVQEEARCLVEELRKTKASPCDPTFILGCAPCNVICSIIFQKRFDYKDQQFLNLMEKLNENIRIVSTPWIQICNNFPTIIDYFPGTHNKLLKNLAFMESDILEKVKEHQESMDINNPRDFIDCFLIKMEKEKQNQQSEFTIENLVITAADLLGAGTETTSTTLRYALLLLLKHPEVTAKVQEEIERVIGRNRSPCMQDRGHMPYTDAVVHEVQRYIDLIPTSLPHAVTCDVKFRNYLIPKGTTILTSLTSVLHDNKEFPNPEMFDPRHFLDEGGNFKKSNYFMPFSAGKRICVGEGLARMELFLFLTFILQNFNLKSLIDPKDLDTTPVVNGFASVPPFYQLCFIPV

SMILES	MIC (Streptococcus pneumoniae) [µg/mL]	AUC(0-t) [1] [ng·h/mL]	MIC (Staphylococcus aureus [2]) [µg/mL]	MRT [3] [min]	MIC (Staphylococcus aureus [4]) [µg/mL]	MIC [5] [µg/mL]	MIC (Staphylococcus aureus [6]) [µg/mL]	Vd [7] [L/kg]	clearance [8] [mL/min/kg]	half-life [9] [min]	MIC [10] [µg/mL]	MIC (Staphylococcus aureus [13]) [µg/mL]	MIC (Staphylococcus aureus [14]) [µg/mL]	ED50 (Staphylococcus aureus [17]) [mg/kg]	ED50 (Staphylococcus aureus [19]) [mg/kg]	MIC (Staphylococcus aureus [22]) [µg/mL]	ED50 (Staphylococcus aureus [23]) [mg/kg]	further results
C=C[C@]1(C)C[C@@H](OC(=O)CSc2cncc(CO)c2)[C@]2(C)[C@H](C)CC[C@]3(CCC(=O)[C@H]32)[C@@H](C)[C@@H]1O	0.063 (≈ 0.126 µM)	3480	0.031 (≈ 0.0618 µM)	32.4	0.031 (≈ 0.0618 µM)	0.031 (≈ 0.0618 µM)	0.063 (≈ 0.126 µM)	1.56	48	360	0.031 (≈ 0.0618 µM)							
C=C[C@]1(C)C[C@@H](OC(=O)CSc2cncc(NC(=O)CN3CCC(O)CC3)c2)[C@]2(C)[C@H](C)CC[C@]3(CCC(=O)[C@H]32)[C@@H](C)[C@@H]1O	0.063 (≈ 0.1 µM)		0.031 (≈ 0.0494 µM)		0.063 (≈ 0.1 µM)	0.125 (≈ 0.199 µM)	0.125 (≈ 0.199 µM)				0.063 (≈ 0.1 µM)	0.063 (≈ 0.1 µM)	0.125 (≈ 0.199 µM)	16.7	3.13	0.063 (≈ 0.1 µM)	9.02	pIC50 (Cytochrome P450 3A4 [11]): 5.79; pIC50 (Cytochrome P450 2C9): < 4.60; pIC50 (Cytochrome P450 2C19): < 4.60; pIC50 (Cytochrome P450 2D6): 4.95; AUC(0-t) [12]: 650 ng·h/mL; half-life [15]: 40.2 min; pIC50 (Cytochrome P450 1A2): < 4.60; pIC50 (Cytochrome P450 3A4 [16]): 5.72; MRT [18]: 36.6 min; clearance [20]: 53.3 mL/min/kg; Vd [21]: 1.9 L/kg
C=C[C@]1(C)C[C@@H](OC(=O)CSc2cncc(COP(=O)([O-])[O-])c2)[C@]2(C)[C@H](C)CC[C@]3(CCC(=O)[C@H]32)[C@@H](C)[C@@H]1O.[Na+].[Na+]		1580		39				3.26	83.3	382		> 32		29.2				remaining at 24 h [24]: 98.1%; remaining at 2400 h [25]: 98.1%; solubility [26]: 106 mg/mL; Tmax [27]: 4.8 min; Tmax (Rattus norvegicus): < 5 min; remaining at 336 h [28]: 98.1%; concentration at […] [29]: 3 ng/mL; remaining at 24 h [30]: 98.1%
CC(=O)NC[C@H]1CN(c2ccc(N3CCOCC3)c(F)c2)C(=O)O1 [LINEZOLID]												1 (≈ 2.96 µM)	1 (≈ 2.96 µM)	15.6	9.39	1 (≈ 2.96 µM)	7.89	
